# Read-outs that look alike come from different tables or passages of the source.
# Key:
# [1] = biological target: T1, EfaUPPS (R42A) (Enterococcus faecalis, UniProt Q831K9, R48A); experiment: UPPS inhibition assay, EfaUPPS R42A mutant; format: biochemical; settings: for effect of mutation on inhibitory effect of compound on EfaUPPS enzyme activity: R42A mutant compared with wild-type
# T1 construct: His tag; made in house; host or cells: E. coli BL21(DE3)
# Experimental: (§1) The EfaUPPS site-directed mutagenesis was generated using QuikChange site-directed mutagenesis kit (Agilent) according to the manufacturer’s instructions. The purification of site-directed mutation was using a similar strategy as described above.
# (§2) The UPPS inhibition assay was carried out by measuring the fluorescence of the reaction mixture in a black 96-well microtiter plate (Corning, United States). […] After the indicated incubation period, the reaction was terminated by the addition of 10 μl of 0.5 M EDTA solution. Transferred 50 μl of the reaction mixture into a new 96-well microtiter plate, and quenched with an equal volume of Master Reaction Mix (Pyrophosphate Assay Kit, Sigma-Aldrich, USA) for 30 min. The UPPS inhibitory activity was performed by calculating the fluorescence percentage through determining the fluorescence absorbance of reaction mixture at 316 and 456 nm. Data of UPPS inhibitory activities were plotted versus compound concentrations on a semi-log scale using GraphPad Prism7. All the results were the means of at least three biological replicates.
# [2] = biological target: T2, EfaUPPS (L146A) (Enterococcus faecalis, UniProt Q831K9, L152A); experiment: UPPS inhibition assay, EfaUPPS L146A mutant; format: biochemical; settings: for effect of mutation on inhibitory effect of compound on EfaUPPS enzyme activity: L146A mutant compared with wild-type; for IC50 fold higher than that of the wild-type: L146A mutant vs wild-type (~3 μM)
# T2 construct: His tag; made in house; host or cells: E. coli BL21(DE3)
# Experimental: as §1, §2
# [3] = biological target: T3, EfaUPPS (I43A) (Enterococcus faecalis, UniProt Q831K9, I49A); experiment: UPPS inhibition assay, EfaUPPS I43A mutant; format: biochemical
# T3 construct: His tag; made in house; host or cells: E. coli BL21(DE3)
# Experimental: as §1, §2
# [4] = biological target: T1, EfaUPPS (R42A); experiment: Microscale thermophoresis binding assay, EfaUPPS R42A
# Experimental: (§3) To characterize the binding affinity between EfaUPPS and GA or NGA, the MST binding assay was performed as previously described ([Lin et al., 2020]). In brief, His-tagged EfaUPPS and site-directed mutated EfaUPPS were labeled with the NT- 647-NHS dye using the Monolith NTTM Protein Labeling Kit RED-NHS (NanoTemper Technologies). Two-fold serially diluted GA or NGA was mixed with 10 nM of labeled EfaUPPS or its derivatives in 10 μl of binding buffer (137 mM NaCl, 2.7 mM KCl, 10 mM Na2HPO4, 1.8 mM KH2PO4, and 0.05% Tween-20, pH 7.8), incubated for 15 min, at room temperature. And then, loaded the mixtures into NT.115 premium coated capillaries (NanoTemper Technologies). MST trace signals were collected from the IR laser on to off for about 20 s, under the 5% LED power and high MST power mode. The change of molecular thermophoresis was monitored by standardized fluorescence value Fnorm, and the binding curve was plotted according to the values of Fnorm. The formed complex affinity was analyzed by MO Affinity Analysis software version 2.3. Apparent dissociation constants (Kd) were calculated using nonlinear fitting assuming one specific binding site with the GraphPad Prism 7 software with the following formula: Y = B^∗Max X/KD + X.
# (§4) (^∗ where BMax is the maximum theoretical specific binding; here BMax = 1).
# [5] = biological target: T4, EfaUPPS (K47A) (Enterococcus faecalis, UniProt Q831K9, K53A); experiment: Microscale thermophoresis binding assay, EfaUPPS K47A
# T4 construct: His tag; made in house; host or cells: E. coli BL21(DE3)
# Experimental: as §3, §4
# [6] = biological target: T2, EfaUPPS (L146A); experiment: Microscale thermophoresis binding assay, EfaUPPS L146A; settings: MST, no binding
# Experimental: as §3, §4
# [7] = biological target: T3, EfaUPPS (I43A); experiment: Microscale thermophoresis binding assay, EfaUPPS I43A
# Experimental: as §3, §4
# [8] = tested on: Escherichia coli BAS 849; experiment: microbe, parasite or virus in culture; format: cell-based; settings: Escherichia coli
# Experimental: (§5) Antibacterial activities were performed by examining the minimal inhibitory concentrations (MICs), which was determined by a microtiter broth dilution method as previously described ([Cotsonas King and Wu, 2009]), with minor modifications. Briefly, 96-well plates (Corning) were inoculated with 100 μl of LB broth per well containing 7 × 10^5 CFU/mL bacteria, followed by adding 100 μl of LB broth containing two-fold serial dilutions of the test compounds. […] After 18 h of incubation, the MIC was determined to be the lowest concentration without visible bacterial growth. The results were the averages of at least three biological replicates.
# [9] = tested on: Escherichia coli BL21 (DE3); experiment: microbe, parasite or virus in culture; format: cell-based; settings: Escherichia coli, 18 h
# Experimental: as §5
# [10] = tested on: Escherichia coli DH5α; experiment: microbe, parasite or virus in culture; format: cell-based; settings: Escherichia coli, 18 h
# Experimental: as §5
# [11] = biological target: T5, EfaUPPS (Enterococcus faecalis, UniProt Q831K9); experiment: Compound/substrate-UPPS binding competition experiment; format: biochemical; settings: 0-20 μM FPP, 1/2/5 μM compound
# T5 construct: His tag; made in house; host or cells: E. coli BL21(DE3)
# Experimental: The compound/substrate-UPPS binding competition experiment was performed as the above descriptions. The difference is that the reaction buffer containing 35 μM IPP, different concentrations of FPP ranged from 0–20 μM, and in the presence of 0/1/2/5 μM GA/NGA, respectively. Data were plotted with competitive inhibition model using GraphPad Prism7.
# T3 sequence (Q831K9 whole entry I49A): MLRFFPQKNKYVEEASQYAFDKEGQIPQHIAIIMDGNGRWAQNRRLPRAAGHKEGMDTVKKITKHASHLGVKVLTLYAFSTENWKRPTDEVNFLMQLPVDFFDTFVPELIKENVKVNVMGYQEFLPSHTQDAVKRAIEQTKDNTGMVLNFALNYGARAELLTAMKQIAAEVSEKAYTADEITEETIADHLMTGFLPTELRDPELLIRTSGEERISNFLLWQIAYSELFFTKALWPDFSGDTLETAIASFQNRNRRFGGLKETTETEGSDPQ
# T2 sequence (Q831K9 whole entry L152A): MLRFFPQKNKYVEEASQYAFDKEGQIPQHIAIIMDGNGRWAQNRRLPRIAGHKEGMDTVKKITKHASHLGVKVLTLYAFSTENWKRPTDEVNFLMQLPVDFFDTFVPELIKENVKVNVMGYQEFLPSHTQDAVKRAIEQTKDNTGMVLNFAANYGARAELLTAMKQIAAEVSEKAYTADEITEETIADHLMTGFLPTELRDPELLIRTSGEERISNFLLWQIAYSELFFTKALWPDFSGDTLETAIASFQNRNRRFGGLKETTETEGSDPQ
# T1 sequence (Q831K9 whole entry R48A): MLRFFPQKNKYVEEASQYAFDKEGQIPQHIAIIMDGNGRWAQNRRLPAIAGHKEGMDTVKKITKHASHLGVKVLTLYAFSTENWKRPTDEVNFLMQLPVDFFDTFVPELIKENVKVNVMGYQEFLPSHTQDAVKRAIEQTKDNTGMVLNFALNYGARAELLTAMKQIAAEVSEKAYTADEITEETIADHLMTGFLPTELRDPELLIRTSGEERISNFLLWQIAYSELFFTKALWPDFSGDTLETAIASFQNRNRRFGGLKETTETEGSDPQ
# T4 sequence (Q831K9 whole entry K53A): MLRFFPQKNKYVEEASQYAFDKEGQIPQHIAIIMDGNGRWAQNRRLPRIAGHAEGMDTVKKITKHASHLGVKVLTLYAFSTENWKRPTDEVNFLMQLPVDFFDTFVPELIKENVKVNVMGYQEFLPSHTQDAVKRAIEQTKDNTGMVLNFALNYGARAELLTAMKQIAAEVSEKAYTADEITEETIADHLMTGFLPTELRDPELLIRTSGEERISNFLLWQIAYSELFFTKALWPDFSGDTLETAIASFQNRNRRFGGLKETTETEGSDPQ
# T5 sequence (Q831K9 whole entry): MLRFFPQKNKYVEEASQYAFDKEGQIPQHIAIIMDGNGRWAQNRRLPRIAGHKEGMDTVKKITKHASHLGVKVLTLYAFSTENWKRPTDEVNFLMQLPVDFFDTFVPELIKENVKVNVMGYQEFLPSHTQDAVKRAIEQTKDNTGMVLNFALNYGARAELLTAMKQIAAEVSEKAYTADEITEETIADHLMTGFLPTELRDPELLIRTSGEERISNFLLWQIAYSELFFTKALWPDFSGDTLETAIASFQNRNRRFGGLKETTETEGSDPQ
SMILES,effect of mutation on inhibitory effect of compound on EfaUPPS enzyme activity [1],IC50 [2],effect of mutation on inhibitory effect of compound on EfaUPPS enzyme activity [2],IC50 fold higher than that of the wild-type [2],Kd [4],Kd [5],Kd [6],competition with FPP for binding to EfaUPPS [11],further results
"CC(C)=CCC[C@]1(C)C=Cc2c(O)c3c(c(CC=C(C)C)c2O1)O[C@]12C(=C[C@@H]4C[C@H]1C(C)(C)O[C@@]2(C/C=C(/C)C(=O)O)C4=O)C3=O [GA, gambogic acid]",does not have significant impact,~30 µM,significantly decreased,about 10 fold,40.5 ± 17.2 µM,4.61 ± 2.62 µM,> 50000 µM,compete with FPP,"IC50 [1]: 5.39 µM; IC50 [3]: ~30 µM; effect of mutation on inhibitory effect of compound on EfaUPPS enzyme activity ([3]; I43A mutant compared with wild-type): significantly decreased; IC50 fold higher than that of the wild-type ([3]; I43A mutant vs wild-type (~3 μM)): about 10 fold; Kd fold lower than that of the wild-type ([5]; K47A vs wild-type): about 6 fold; Kd [7]: > 50000 µM; MIC ([8]; BAS849, LB broth, 18 h, strain with deficient outer-membrane structure, read-out: MIC): 8 µg/mL; MIC ([9]; LB broth, read-out: MIC): > 64 µg/mL; MIC ([10]; LB broth, read-out: MIC): > 64 µg/mL"
"CC(C)=CCC[C@]1(C)CC(O)c2c(O)c3c(c(CC=C(C)C)c2O1)O[C@]12C(=C[C@@H]4C[C@H]1C(C)(C)O[C@@]2(C/C=C(/C)C(=O)O)C4=O)C3=O (stereo partly drawn) [NGA, neogambogic acid]",significantly reduced,~30 µM,significantly reduced,about 10 fold,62.9 ± 25.4 µM,65.9 ± 25.8 µM,> 50000 µM,compete with FPP,"Kd fold higher than that of the wild-type ([4]; R42A vs wild-type): about 10 fold; Kd fold higher than that of the wild-type ([5]; K47A vs wild-type): about 10 fold; MIC ([8]; BAS849, 18 h): 8 µg/mL; MIC [9]: > 64 µg/mL; MIC [10]: > 64 µg/mL"

# — article PMC9791066, “Investigations into the antibacterial effects and potential mechanism of gambogic acid and neogambogic acid” (Frontiers in Microbiology, 2022)
